Test results: patent publication US8552058B2, “Application of L-n-butylphthalide in preventing and treating dementia” (CSPC Zhongqi Pharmaceutical Technology (Shijazhuang) Co., …, priority 2004, dated 2013)
Entries after “also recorded” stand apart in the source; their conditions may differ.

Legend:
[1] = system: glutathione peroxidase (GSH-Px); assay: GSH-Px activity in cortex and hippocampus after continuous perfusion of Aβ (1-40); type: in vivo, Wistar rats; details: Aβ (1-40) rats; for GSH-PX, hippocampus / GSH-PX, cortex: n = 7; for GSH-PX, hippocampus: model 9.32 ± 1.01, sham 16.19 ± 1.19; for GSH-PX, cortex: model 11.18 ± 1.32, sham 15.86 ± 0.91
Description: (§1) Male Wistar rats, which were 10-weeks old and weighed approximately 280 grams, were used. One animal was placed in one cage, while the room temperature was kept at 23° C., with food and water freely accessible. Rats were anaesthetized with sodium pentobarbital (40 mg/kg), and were fixed to stereotaxic apparatus with the position of ventral decubitus. Head skin was cut open, a cannula for Aβ (1-40) perfusion was implanted into right ventricle. According to the stereotaxic profile of rat brain by Paxions and Watson, the implantation site was located 0.3 mm behind and 1.1 mm in the right side of anterior fontanelle, with the depth of 4.0 mm. The cannula was connected to a micro-osmotic pump. The pump was placed on the back of the rat. Aβ (1-40) was dissolved in 35% acetonitrile/0.1% trifluroacetic acid, and was continuously perfused intracerebroventricularly (i.c.v.) at 300 pmol/day, while only the solvent (35% acetonitrile/0.1% trifluroacetic acid) was perfused in the control group.
(§2) Rats were randomly classified into […] groups, with 10 animals per group. 1) the sham surgery group: only 35% acetonitrile/0.1% trifluroacetic acid+solvent was perfused into the ventricles of the rats; 2) the model group: Aβ (1-40)+solvent; 3) Aβ (1-40)+L-NBP 10 mg/kg group; 4) Aβ (1-40)+L-NBP 30 mg/kg group. Respective drug or solvent was drenched since the 2nd day after the surgery. The water maze experiment was performed on the 9-13 day after the surgery, while the platform exploration experiment was performed on the 13th day, and the working memory test was performed on the 14-16th days. Animals were decapitated to remove brains for biochemical assay on the 17th day. In all ethological tests, medicines were administered 40 minutes prior to the respective test.
(§3) Malondialdehyde (MDA) and glutathione peroxidase (GSH-Px) were determined by the same assays as above.
(§4) All results were expressed in mean±standard error. Comparison of latencies between groups in water maze experiment was performed using two-factor analysis of variance in replicate. Comparison between groups was performed using post hoc LSD or Turkey test. Platform exploration test in water maze experiment, working memory test and biochemical assay were analyzed using one-factor analysis of variance. A difference was considered significant when p<0.05.

malondialdehyde (MDA) = assay: MDA content in cortex and hippocampus after continuous perfusion of Aβ (1-40); type: in vivo, Wistar rats; details: Aβ (1-40) rats; for MDA, hippocampus / MDA, cortex: n = 7; for MDA, hippocampus: model 1.48 ± 0.12, sham 1.13 ± 0.06; for MDA, cortex: model 1.48 ± 0.14, sham 1.10 ± 0.09
Description: as §1, §2, §3, §4

Q: CCCC[C@@H]1OC(=O)c2ccccc21 [L-NBP, L-n-butylphthalide] was tested. Which “GSH-Px activity after treatment (in words)” value ([1]; 10 mg/kg) did it give?
A: could also increase the activity of GSH-Px, but with no statistically significant difference

Q: What about the “GSH-PX, hippocampus” value ([1]; 10 mg/kg) of the same compound?
A: 12.73 ± 1.34 U/mg protein

Q: And the “GSH-PX, cortex” value ([1]; 10 mg/kg)?
A: 11.73 ± 0.53 U/mg protein

Q: What about the “GSH-PX, hippocampus” value ([1]; 30 mg/kg, p<0.01 vs model) of the same compound?
A: 18.91 ± 1.16 U/mg protein

Q: What about the “GSH-PX, cortex” value ([1]; 30 mg/kg, p<0.01 vs model) of the same compound?
A: 15.40 ± 1.03 U/mg protein

Q: What about the “GSH-Px activity after treatment (in words)” value ([1]; 30 mg/kg, p<0.01) of the same compound?
A: increased significantly

Q: And the “GSH-Px activity and MDA content (overall conclusion)” value [1]?
A: could improve GSH-Px activity and reduce MDA content

Q: What about the “MDA, hippocampus” value (malondialdehyde (MDA); 10 mg/kg, p<0.01 vs model) of the same compound?
A: 1.12 ± 0.07 nmol/mg protein

Q: And the “MDA, cortex” value (malondialdehyde (MDA); 10 mg/kg, p<0.05 vs model)?
A: 1.06 ± 0.05 nmol/mg protein

Q: What about the “reduction of hippocampal MDA content” value (malondialdehyde (MDA); 10 mg/kg, vs model, p<0.01) of the same compound?
A: 24.3%

Q: What about the “reduction of cortical MDA content” value (malondialdehyde (MDA); 10 mg/kg, vs model, p<0.05) of the same compound?
A: 28.4%

Q: What about the “MDA, hippocampus” value (malondialdehyde (MDA); 30 mg/kg, p<0.05 vs model) of the same compound?
A: 1.15 ± 0.07 nmol/mg protein

Q: And the “MDA, cortex” value (malondialdehyde (MDA); 30 mg/kg, p<0.05 vs model)?
A: 1.06 ± 0.10 nmol/mg protein

Q: What about the “effect on cortical and hippocampal MDA content (in words)” value (malondialdehyde (MDA); 30 mg/kg, vs model group p<0.05) of the same compound?
A: weaker than that in the 10 mg/kg group, yet were still significantly different; also recorded: a little weaker in the 30 mg/kg group than in the 10 mg/kg group, yet still significantly different
